Measured values from paper PMC9571408, “Synthesis of Isomeric 3-Benzazecines Decorated with Endocyclic Allene Moiety and Exocyclic Conjugated Double Bond and Evaluation of Their Anticholinesterase Activity” (Molecules, 2022).
In brackets after ≈: the same amount, converted by molar mass. Several values for one entry are separate records, joined by “and”; a condition that tells them apart may be missing. Identical values can stand only once.

Columns and labels:
[1] = biological target: T1, human recombinant monoamine oxidase B (Homo sapiens, UniProt P27338); assay: Inhibition of MAO-B, kynuramine fluorescence assay; type: biochemical; conditions: mean ± SD
T1 construct: purchased Sigma Aldrich; host or cells: baculovirus infected insect cells (microsomes)
T1 sequence (P27338 1-520): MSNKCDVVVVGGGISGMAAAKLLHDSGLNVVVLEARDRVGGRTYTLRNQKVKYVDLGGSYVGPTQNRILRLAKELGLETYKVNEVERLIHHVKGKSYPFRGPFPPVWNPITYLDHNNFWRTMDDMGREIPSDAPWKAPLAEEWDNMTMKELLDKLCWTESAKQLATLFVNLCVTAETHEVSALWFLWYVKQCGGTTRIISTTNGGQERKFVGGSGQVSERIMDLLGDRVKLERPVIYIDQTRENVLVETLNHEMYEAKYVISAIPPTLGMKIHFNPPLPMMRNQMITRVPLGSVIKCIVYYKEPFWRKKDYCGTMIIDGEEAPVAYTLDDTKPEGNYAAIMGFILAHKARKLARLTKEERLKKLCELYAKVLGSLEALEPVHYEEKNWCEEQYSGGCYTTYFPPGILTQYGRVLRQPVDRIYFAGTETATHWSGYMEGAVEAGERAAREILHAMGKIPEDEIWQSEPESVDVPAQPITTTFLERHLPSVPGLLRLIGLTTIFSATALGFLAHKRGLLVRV
Experimental: (§1) Herein, a number of newly and previously synthesized 3-benzazecine analogs, including either allene (Figure 1, scaffold A) or 6- and 8-ylidene (B and C) derivatives, were firstly assayed as inhibitors of AChE, BChE, and MAOs at 10 μM concentration.
(§2) Inhibition of human recombinant monoamine oxidases A (250 U/mg) and B (59 U/mg; microsomes from baculovirus infected insect cells; Sigma Aldrich) was determined as already described, measuring the fluorescence of 4-hydroxyquinoline produced by MAOs in the oxidative deamination of substrate kynuramine. Briefly, compounds were tested in coincubation with MAO and kynuramine in phosphate buffer 390 mOsm pH 7.4, at 37 °C for 30 min. Assays were performed in 96-well black polystyrene plates (Greiner) using the Infinite M1000 Pro plate reader (Tecan). Inhibition data were obtained as means ± SD using GraphPad Prism.

BChE from human serum = BChE from human serum (Homo sapiens, UniProt P06276); conditions: screened at 10 μM; n.i. = no inhibition
Experimental: as §1
(§3) Inhibition of human recombinant AChE (2770 U/mg) or BChE from human serum (50 U/mg) was determined as described using the Ellman spectrophotometric method in a 96-well plate procedure. Briefly, test compounds were incubated in phosphate buffer pH 8.0 in the presence of the enzyme and 5,5′-dithiobis-(2-nitrobenzoic acid) (DTNB) as the chromophoric reagent. Incubation samples were made in 96-well, flat-bottomed transparent polystyrene plates (Greiner Bio-One, Kremsmünster, Austria), at 25 °C for 20 min, and read at 412 nm using an Infinite M1000 Pro plate reader (Tecan, Cernusco s.N., Italy). For inhibition kinetics, four concentrations of compound 3e (ranging from 0 to 15 μM), and six concentrations of acetylthiocholine (from 33 to 200 μM) were used. Inhibition data and kinetics were obtained as means ± SD from 3 independent experiments, using GraphPad Prism (version 5.00 for Windows; GraphPad Software, San Diego, CA, USA).

human recombinant AChE = human recombinant AChE (Homo sapiens, UniProt P22303); conditions: for IC50: read-out: hAChE half-maximal inhibitory concentration, mean ± SD of three independent measurements, unit from b17 (low μM range)
Experimental: as §1, §3

[2] = biological target: T2, human recombinant monoamine oxidase A (Homo sapiens, UniProt P21397); assay: Inhibition of MAO-A, kynuramine fluorescence assay; type: biochemical; conditions: mean ± SD
T2 construct: purchased Sigma Aldrich; host or cells: baculovirus infected insect cells (microsomes)
T2 sequence (P21397 1-527): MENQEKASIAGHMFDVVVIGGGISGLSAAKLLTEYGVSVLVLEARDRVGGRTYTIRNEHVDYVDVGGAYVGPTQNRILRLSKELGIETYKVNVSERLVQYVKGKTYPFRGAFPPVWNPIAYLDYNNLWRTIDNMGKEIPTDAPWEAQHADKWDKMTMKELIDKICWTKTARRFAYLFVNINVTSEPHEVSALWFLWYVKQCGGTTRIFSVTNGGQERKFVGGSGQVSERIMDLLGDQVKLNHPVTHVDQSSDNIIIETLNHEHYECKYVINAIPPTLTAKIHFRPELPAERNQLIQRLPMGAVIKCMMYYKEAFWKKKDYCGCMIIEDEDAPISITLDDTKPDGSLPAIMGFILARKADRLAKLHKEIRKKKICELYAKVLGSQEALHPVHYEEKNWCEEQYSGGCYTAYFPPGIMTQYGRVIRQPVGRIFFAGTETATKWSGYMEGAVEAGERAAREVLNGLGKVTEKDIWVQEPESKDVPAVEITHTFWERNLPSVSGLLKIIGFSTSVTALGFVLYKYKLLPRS
Experimental: as §1, §2

[3] = Hydrolytic stability in water-buffered solution by U-HPLC; conditions: PBS pH 7.4, 0.15 M KCl, 37 °C (table footnote)
Experimental: At appropriate time intervals, samples were withdrawn and analyzed by U-HPLC using a 1290 Infinity Quaternary LC system (Agilent Technologies, Milan, Italy) equipped with autosampler and photodiode array detector. A Phenomenex Kinetex C18 column 2.6 µm (150 × 2.1 mm i.d.) was used as stationary phase. […] Pseudo-first-order rate constants (kobs) for the hydrolysis of the compound were calculated from the slopes of the linear plots of log (% remaining compound) against time.

[4] = Kinetic aqueous solubility by U-HPLC
Experimental: Following shaking of the suspension in an orbital shaker at 250 rpm for 2 h, the solution was separated by centrifugation (2500 rpm, 3 min) and filtered. Equal volume of solution was transferred into 1:1 (v/v) mixture of DMSO/PBS. The concentration of compound was determined by U-HPLC and UV detector (255 nm) comparing the peak area of external standard solution. All data were means of 3 independent experiments (± SEM). […] HPLC analyses were performed on an Agilent U-HPLC 1260 Infinity Quaternary LC system (Agilent Technologies, Milan, Italy) (Table 4).

Chain of human recombinant AChE (P22303 32-614): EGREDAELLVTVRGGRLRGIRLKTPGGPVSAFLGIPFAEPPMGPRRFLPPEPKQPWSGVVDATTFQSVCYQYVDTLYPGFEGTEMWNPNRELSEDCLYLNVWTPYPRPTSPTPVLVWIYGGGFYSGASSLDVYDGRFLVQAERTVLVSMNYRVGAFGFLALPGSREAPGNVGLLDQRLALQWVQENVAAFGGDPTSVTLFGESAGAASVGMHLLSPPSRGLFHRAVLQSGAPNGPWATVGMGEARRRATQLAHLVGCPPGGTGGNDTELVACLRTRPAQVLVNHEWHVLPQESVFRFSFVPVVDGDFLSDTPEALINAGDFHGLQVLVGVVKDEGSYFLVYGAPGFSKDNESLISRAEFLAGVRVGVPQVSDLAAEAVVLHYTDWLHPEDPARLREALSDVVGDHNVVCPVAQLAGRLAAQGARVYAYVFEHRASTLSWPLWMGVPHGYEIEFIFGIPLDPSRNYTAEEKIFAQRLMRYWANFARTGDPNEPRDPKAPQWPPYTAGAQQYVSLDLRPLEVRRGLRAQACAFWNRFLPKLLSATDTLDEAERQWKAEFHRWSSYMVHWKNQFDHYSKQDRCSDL
Chain of BChE from human serum (P06276 29-602): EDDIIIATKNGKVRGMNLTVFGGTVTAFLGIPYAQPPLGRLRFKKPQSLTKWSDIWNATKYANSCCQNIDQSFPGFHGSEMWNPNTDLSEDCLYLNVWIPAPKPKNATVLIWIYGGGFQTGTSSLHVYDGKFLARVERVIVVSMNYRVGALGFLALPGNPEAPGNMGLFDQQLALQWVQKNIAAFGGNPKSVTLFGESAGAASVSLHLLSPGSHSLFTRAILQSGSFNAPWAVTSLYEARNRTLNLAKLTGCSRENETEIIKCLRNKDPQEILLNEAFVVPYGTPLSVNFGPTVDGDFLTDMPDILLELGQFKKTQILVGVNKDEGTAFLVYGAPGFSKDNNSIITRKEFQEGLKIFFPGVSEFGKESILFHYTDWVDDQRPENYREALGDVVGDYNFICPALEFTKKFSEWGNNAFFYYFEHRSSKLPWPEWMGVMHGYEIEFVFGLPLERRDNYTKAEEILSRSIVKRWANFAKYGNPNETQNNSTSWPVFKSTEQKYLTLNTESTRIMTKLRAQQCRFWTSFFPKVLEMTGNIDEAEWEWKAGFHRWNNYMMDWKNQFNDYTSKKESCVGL

**Q.** With COCC1=C=C(c2ccc(C)cc2)c2cc(OC)c(OC)cc2CCN(C)C=C1C(=O)OC [Compound 3d, Methyl 3-methyl-8-(4-methylphenyl)-10,11-dimethoxy-6-(methoxymethyl)-benzo[d]-3-aza-cyclodeca-4,6,7-triene-5-carboxylate] as the compound, how does the “hMAO-B % inhibition at 10 μM” value [1] read?
**A.** The value was “(30 ± 5) %”.

**Q.** What about the hBChE inhibition (BChE from human serum) of the same compound?
**A.** The hBChE inhibition was “n.i”.

**Q.** What about the IC50 (human recombinant AChE) of the same compound?
**A.** The IC50 was 19.3 ± 3.3 µM.

**Q.** And the “hMAO-A % inhibition at 10 μM” value [2]?
**A.** The value was “(30 ± 4) %”.

**Q.** Which results are given for COCC1=C=C(c2ccc(OC)cc2)c2cc(OC)c(OC)cc2CCN(C)C=C1C(=O)OC [Compound 3e, Methyl 3-methyl-10,11-dimethoxy-6-methoxymethyl-8-(4-methoxyphenyl)-benzo[d]-3-aza-cyclodeca-4,6,7-triene-5-carboxylate]?
**A.** Hydrolytic half-life [3]: 4.5 h; hMAO-B % inhibition at 10 μM [1]: (23 ± 1) %; hBChE inhibition (BChE from human serum): n.i.; Ki (human recombinant AChE; read-out: AChE inhibition, Ki, Lineweaver–Burk inhibition kinetics, acetylthiocholine substrate): 4.9 µM and 4.89 µM; IC50 (human recombinant AChE): 12.2 ± 2.6 µM; hMAO-A % inhibition at 10 μM [2]: (37 ± 5) %; Water solubility relative to 3n ([4]; 3e vs 3n, buffered aqueous solution pH 7.4): 90 fold; Solubility ([4]; PBS pH 7.4, 0.15 M KCl, 37 °C, kinetic solubility): 17.4 ± 0.7 µM (≈ 8.1 µg/mL)

**Q.** With COCC1=C=C(c2ccc(C)cc2)c2cc(OC)c(OC)cc2CCN(C)C=C1C(C)=O [Compound 3i, 1-(3-Methyl-8-(4-methylphenyl)-10,11-dimethoxy-6-methoxymethyl-benzo[d]-3-aza-cyclodeca-4,6,7-trien-5-yl)ethanone] as the compound, how does the “hMAO-B % inhibition at 10 μM” value [1] read?
**A.** The value was “(38 ± 4) %”.

**Q.** What about the hBChE inhibition (BChE from human serum) of the same compound?
**A.** Its hBChE inhibition is “n.i”.

**Q.** What about the IC50 (human recombinant AChE) of the same compound?
**A.** The IC50 was 32.5 ± 4.4 µM.

**Q.** And the “hMAO-A % inhibition at 10 μM” value [2]?
**A.** The value was “(28 ± 1) %”.

**Q.** For COCC1=C=C(c2ccc(OC)cc2)c2cc(OC)c(OC)cc2CCN(C)C=C1C(C)=O [Compound 3j, 1-(3-Methyl-10,11-dimethoxy-6-methoxymethyl-8-(4-methoxyphenyl)-benzo[d]-3-aza-cyclodeca-4,6,7-trien-5-yl)ethanone], which “hMAO-B % inhibition at 10 μM” value [1] is on record?
**A.** The value was “(28 ± 5) %”.

**Q.** And the hBChE inhibition (BChE from human serum)?
**A.** The hBChE inhibition was “n.i”.

**Q.** What about the IC50 (human recombinant AChE) of the same compound?
**A.** Its IC50 is 13.2 ± 0.7 µM.

**Q.** What about the “hMAO-A % inhibition at 10 μM” value [2] of the same compound?
**A.** The value was “(29 ± 5) %”.
